What was measured:
[1] = test system: CREB phosphorylation in isolated nuclei; assay: CREB phosphorylation in isolated HeLa nuclei (P2), Western analysis; type: biochemical; conditions: for relative intensity of phospho-CREB band normalized to basal: basal 1 U, 1 mM 8-Br cAMP, 40 mM bicarbonate alone or plus 10 μM H-89 or 1 mM 8-Br-RpcAMPs
Protocol: The resuspended pellet and 60% OptiPrep iodixanol were mixed (30% OptiPrep final) and centrifuged at 10,000 g for 20 min. The supernatant was removed and the nuclei-enriched pellet (P2) was resuspended in TM-2 buffer without detergent.
Reactions were stopped by the addition of 20 μl of SDS sample buffer (CREB phosphorylation) or by being placed into a 100° C. heat block for 3 min (adenylyl cyclase).
(§1) For whole cell and isolated nuclei CREB phosphorylation assays, equal cell or nuclear equivalents were separated under reducing conditions using a 10% SDS-PAGE, transferred to a PVDF membrane, and probed for CREB (rabbit polyclonal antiserum; Chemicon, Temecula, Calif.) and phosphorylated CREB (rabbit polyclonal antiserum; Upstate Biotechnology, Temecula, Calif.). HRP-conjugated secondary antibodies were used, and bands were visualized using ECL. Image analysis software (model Fluorchem 8800; Alpha Innotech, San Leandro, Calif.) was used to quantitate Western results. Intensities of phospho-CREB bands were normalized to total CREB.

CREB phosphorylation [2] = assay: CREB phosphorylation in COS7 cells; type: cell-based; conditions: 10 μM H89 pretreatment 10 min
Protocol: All cell lines were grown in DME (44 mM sodium bicarbonate) supplemented with 10% FBS. Where indicated, cells were transfected using Lipofectamine 2000 (Invitrogen, Carlsbad, Calif.) as per the manufacturer's instructions. Cells were incubated with DNA for 5 h in OPTI-MEM (Invitrogen), and then switched to normal media. Bicarbonate starvation was conducted by changing media to bicarbonate-free DME (44 mM Hepes) supplemented with 10% FBS for at least 1 h at 37° C. under ambient air conditions. Bicarbonate stimulation consisted of returning cells to normal bicarbonate-containing media and placing them in a 5% CO2 incubator. For PGE2 or forskolin stimulation, cells were grown in normal media under 5% CO2. Stimulation was accomplished by replacing media with normal media containing 1 μM PGE2 or 10 μM forskolin. […]
For phospho-CREB immunolocalization, cells or nuclei were fixed in 4% PFA for 30 min, permeabilized in 0.1% Triton X-100 for 15 min, blocked for at least 1 h in 3% BSA, and immunostained using phospho-CREB polyclonal antisera (1:500; Cell Signaling Technologies) overnight at 4° C. […] Fluorescent images were recorded by a digital camera (Hamamatsu, Bridgewater, N.J.) connected to an inverted epifluorescent microscope (Nikon, Melville, N.Y.). […] Phospho-CREB-positive nuclei were quantified in multiple fields from each stained slide by a blinded experimenter. […]

[3] = test system: CREB phosphorylation in isolated nuclei; assay: phospho-CREB immunocytochemistry of isolated nuclei; type: biochemical; conditions: 10 min; 40 mM sodium bicarbonate, 1 mM 8-Br cAMP, 10 μM forskolin
Protocol: Cell Signaling Technologies) overnight at 4° C. Staining was visualized by incubation with goat anti-rabbit Alexa Fluor 488 (Molecular Probes) for 1 h at room temperature, treated with DAPI for 5 min, and washed and mounted with gelvatol/DABCO (Sigma-Aldrich). Fluorescent images were recorded by a digital camera (Hamamatsu, Bridgewater, N.J.) connected to an inverted epifluorescent microscope (Nikon, Melville, N.Y.). Images were taken at the same exposure time and gain, and all photographic manipulations were performed equally. Phospho-CREB-positive nuclei were quantified in multiple fields from each stained slide by a blinded experimenter. […] Nuclei were also treated with DAPI to differentiate intact nuclei from membrane ghosts. DAPI-positive nuclei were scored for phosho-CREB immunofluorescence. Nuclei with detectable staining (FIG. 6A, NaHCO3) were considered positive for CREB phosphorylation, whereas nuclei with no detectable staining (FIG. 6A, Basal) were counted as negative. Multiple microscopic fields were photographed for each condition, and data was combined from three to five separate experiments.

CREB phosphorylation [4] = assay: time course of CREB phosphorylation in Huh7 cells; type: cell-based, human; conditions: 44 mM bicarbonate DME, 1 μM PGE2
Protocol: FIGS. 2A-B show the time course of CREB phosphorylation by sAC and tmAC. Huh7 cells were starved for 1 h for bicarbonate and CO2 and incubated in 44 mM of normal, bicarbonate-containing DME in 5% CO2 for the time indicated (FIG. 2A) or kept in normal media and treated with 1 μM PGE2 for the time indicated (FIG. 2B). Top panels in FIGS. 2A-B show Western blots using anti-phospho-CREB antisera with phosphorylated CREB (P-CREB) protein indicated; the bottom panels show Western blot using CREB-specific antisera with total CREB (CREB) protein indicated. Shown below the Western blots in FIGS. 2A-B are graphical representations of the intensities of phospho-CREB relative to CREB normalized to the 0 min time point (first lane).
All cell lines were grown in DME (44 mM sodium bicarbonate) supplemented with 10% FBS. […]
as §1, with “HRP-conjugated secondary antibodies were used, and bands were visualized using ECL.” left out, “Intensities of phospho-CREB bands were normalized to total CREB.” left out

[5] = target: catalytic portion of the sAC-like adenylyl cyclase from Candida albicans (fragment JR3) (Candida albicans, UniProt A0A1D8PR83); assay: biochemical; conditions: read-out: EC50 for stimulation of adenylyl cyclase activity of JR3
Chain of catalytic portion of the sAC-like adenylyl cyclase from Candida albicans (fragment JR3) (A0A1D8PR83 entry or part of it): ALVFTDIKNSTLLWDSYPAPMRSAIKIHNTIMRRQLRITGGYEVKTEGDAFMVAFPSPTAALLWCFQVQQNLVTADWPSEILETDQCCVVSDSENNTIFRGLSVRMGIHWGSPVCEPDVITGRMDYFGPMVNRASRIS
Source text: . FIG. 17A illustrates the bicarbonate dependence of the JR3 fragment; […];

Row | Structure (SMILES) | relative intensity of phospho-CREB band normalized to basal [1] [U] | reduction of CREB phosphorylation induced by bicarbonate ([1]; isolated nuclei, 40 mM bicarbonate) [%] | effect on forskolin- or bicarbonate-induced phospho-CREB immunostaining (CREB phosphorylation [2]) | increase in CREB phosphorylation ([1]; isolated nuclei, Western) [fold] | percentage of phospho-CREB-positive nuclei relative to basal [3] | time to detectable increase in phospho-CREB (CREB phosphorylation [4]) [min] | EC50 [5] [µM]
1 | O=S(=O)(NCCNC/C=C/c1ccc(Br)cc1)c1cccc2cnccc12 [H89] | 13 | 50 | inhibited | – | – | – | –
2 | O=C([O-])O.[Na+] [bicarbonate, sodium bicarbonate] | 27 | – | – | 27 | at least a twofold rise | ≤ 2 | ~200

Reference: patent US9649295B2, “Chemical inhibitors of soluble adenylyl cyclase (sAC)” (Cornell Research Foundation, Inc., priority 2004, dated 2017)
